The source made the active and inactive calls.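 How the source made its calls: active means curve reaches 40% activation over neutral controls at an AC40 no higher than the top valid tested concentration; inconclusive means no clear call, values can overlap the other calls; inactive means signal moving opposite to the expected increase, and the rest.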

The assay deals with INS-1E GLuc insulin secretion reporter, luminescence, 2-3 h. Description: activators of glucose-dependent insulin secretion, dose response, cell-based, INS-1E, Gaussia luciferase, luminescence, cherry-pick, set 2 (AID 977607).
`C=CCOc1ccc(-c2nc3c(c(=O)[nH]c(=O)n3CCCC)n2C)cc1Br`: the AC40 was 11.1 µM.
Turning to `CCOc1ncccc1C(=O)Nc1ncc(C)s1`, the AC40 is > 35 µM (inactive).
Turning to `CCN=C1NC(c2ccc(C(F)(F)F)cc2)C(C(=O)OC)=C(C)N1Cc1cccc(C(F)(F)F)c1` (stereo unspecified), the AC40 is 14.3 µM.
For `CCOc1ccccc1Nc1cc2n(c(=O)n1)CCc1cc(OC)c(OC)cc1-2`, the AC40 was 1.07 µM.
Turning to `COc1cc2c(cc1OC)-c1cc(Nc3ccc(N(C)C)cc3)nc(=O)n1CC2`, the AC40 was 5.31 µM.
For `N#Cc1nccnc1S(=O)(=O)c1cccs1` the value was 0.467 µM; for `Fc1cccc(CN2C[C@@H]3N[C@H](C2)C3c2ccc(/C=C/c3ccccc3)cc2)c1` (stereo partly specified), 11.4 µM.
For `COCCNc1nc(Oc2cncc(Cl)c2)c2sccc2n1` the value was 2.88 µM.
`CCCNC(=O)c1nnsc1S(=O)(=O)c1ccc(Cl)cc1`: the AC40 was 1.63 µM.
Regarding `Fc1ccc(-c2ccc(C3[C@@H]4CN(Cc5cccc(F)c5)C[C@H]3N4)cc2)cc1` (stereo partly specified), the AC40 was 5.48 µM.
For `O=C(c1ccc(F)cc1)N1C[C@@H]2N[C@H](C1)C2c1ccc(/C=C/c2ccccc2)cc1` (stereo partly specified), the AC40 is 6.56 µM.
As to `COc1ccc(CCN(C)C(=O)COc2cccc(-n3cnnn3)c2)cc1OC`, the AC40 was > 35 µM (inactive).
In the case of `CC(C)(C)c1nc2ccc(Cl)cn2c1CC1CCCCC1`, the AC40 is 16 µM.
Turning to `COc1ccc(C(=O)NCC(=O)OCC(=O)Nc2ccc(C)c(S(=O)(=O)N(C)C)c2)cc1OC`, the AC40 is 1.67 µM.
Turning to `Clc1ccc(/C=N/NC2=Nc3cccc4cccc2c34)cc1`, the AC40 was 2.13 µM.
In the case of `Cc1ccc(C(C)C)c(OCCNCCc2ccccc2)c1` it was 15 µM.
Regarding `O=c1c2ccc(Cl)cc2[nH]c(=S)n1CCC1=CCCCC1`, the AC40 was 3.37 µM.
As for `CCOc1ncccc1C(=O)Nc1ccc(S(=O)(=O)Nc2nccs2)cc1`, the AC40 was 3.21 µM.
Take `COc1ccc(-c2nc(CCl)cs2)cc1OC`: the AC40 is > 35 µM (inactive).
Regarding `COc1cc2c(cc1OC)/C(=C/C(=O)c1ccc(NC(C)=O)cc1)NCC2`, the AC40 is 14.6 µM.
`COc1ccc(CCN(C)C(=O)c2oc3ccccc3c2C)cc1OC`: the AC40 is 7.06 µM.
For `COc1ccc(CCNS(=O)(=O)c2cn(C)cn2)cc1OC`, the AC40 was 4.84 µM.
For `COc1cc2c(cc1OC)-c1cc(Nc3ccccc3C)nc(=O)n1CC2`, the AC40 was 0.408 µM.
Turning to `CCOC(=O)[C@]12Cc3c(cc(OC)c(OC)c3OC)[C@H]1N(C1CCCCC1)C(=O)c1cc(OC)ccc12`, the AC40 was 15.5 µM.
For `C/C=C/c1ccc(C2[C@@H]3CN(C(=O)Nc4ccc(C(F)(F)F)cc4)C[C@H]2N3)cc1` (stereo partly specified) the value was 12.5 µM; for `CCCCCCN1C[C@H](n2cc(C3CC3)nn2)[C@@H](O)C[C@@H]1c1ccc(C)cc1`, 7.33 µM; for `COc1ccc(C#Cc2ccc([C@@H]3[C@H](CO)N4CCCCN(Cc5ccccc5F)C[C@@H]34)cc2)cc1`, 6.53 µM.
`Cc1cccc(-c2ccc(C3[C@@H]4CN(C(=O)Nc5ccc(C(F)(F)F)cc5)C[C@H]3N4)cc2)c1` (stereo partly specified): the AC40 was 1.09 µM.
Take `CNC[C@@H](Cc1ccccc1)NC[C@@H](CC1CCCCC1)NCCCc1ccccc1`: the AC40 was > 35 µM (inactive).
As to `CC1(C(=O)NS(=O)(=O)c2ccc(Cl)s2)CCN1C(=O)C1(c2ccc(Cl)cc2)CCC1` (stereo unspecified), the AC40 is > 35 µM (inactive).
In the case of `NC1=NC[C@H](c2ccccc2)N1CCCCC1CCCCC1` it was 28.8 µM; in that of `CC(C)n1nc(C(=O)Nc2ccccc2N2CCOCC2)c2ccccc2c1=O`, 8.07 µM; in that of `CCCNC(=O)c1nnsc1S(=O)c1ccc(Cl)cc1` (stereo unspecified), 1.06 µM.
As for `CCCNC(=O)Cn1sc2nc(C)cc(C)c2c1=O`, the AC40 was 6.91 µM.
Regarding `COc1ccc(C2=Nn3c(nnc3-c3ccncc3)SC2)cc1OC`, the AC40 was 13.3 µM.
As for `Cc1ccc2oc(-c3cccc(NC(=O)Cc4cccs4)c3)nc2c1`, the AC40 is 5.62 µM.
As to `C=C(C)C1Cc2c(C)nn(-c3cccc4cccnc34)c2C1` (stereo unspecified), the AC40 is 2.1 µM.
Turning to `COc1ccc(CN2CCN(Cc3ccccc3F)CC2)cc1`, the AC40 was > 35 µM (inactive).
As to `CCCCn1c(N2CCCC2)nc2c1c(=O)[nH]c(=O)n2C`, the AC40 is 5.57 µM.
In the case of `CCc1ccc(OCC(=O)NC(=S)Nc2ccc(F)cc2)c(Br)c1` it was 10 µM; in that of `COc1ccc(CCn2ccc(O)c(Cc3c(F)cccc3Cl)c2=O)cc1OC`, 0.0544 µM; in that of `CCOC(=O)c1cn(-c2ccccc2)nc1-c1ccncc1`, 10.5 µM.
For `COc1ccccc1C(=O)NC(=S)NC12CC3CC(CC(C3)C1)C2` the value was 7.9 µM; for `NS(=O)(=O)c1ccc(NC(=O)COC(=O)c2cn(-c3ccccc3)nc2-c2ccc(F)cc2)cc1`, 4.82 µM.
For the compound `CCOc1cc(/C=N/NC(=O)CCn2nc(C)cc2C)ccc1O`, the AC40 was 8.04 µM.
Regarding `Cc1ccccc1C(=O)Nc1nnc(-c2ccc(C(C)(C)C)cc2)s1`, the AC40 is 18.3 µM.
For the compound `COc1ccc(CCNS(=O)(=O)c2cccc(C)c2)cc1OC`, the AC40 was 2.46 µM.
For `COc1cc2cnc(-c3cccnc3)cc2cc1OC` the value was 6.19 µM; for `O=c1[nH][nH]c2c1C(c1ccc(Cl)c(Cl)c1)OC(CCc1ccccc1)C2` (stereo unspecified), 16.9 µM; for `COC(=O)c1ccc2c(c1)NC(=O)C(N(CC(C)C)CC(C)C)S2` (stereo unspecified), 5.29 µM.
For `O=c1c2ccccc2sn1-c1ccccc1` the value was 3.25 µM.
In the case of `N#Cc1sc2nc(N3CCCCC3)c3c(c2c1N)CCCC3` it was 28.6 µM; in that of `COC(=O)C1=C(C)N(Cc2cccc(C(F)(F)F)c2)C(=NCc2ccc3c(c2)OCO3)NC1CCc1ccccc1` (stereo unspecified), 13.1 µM.
With `N#Cc1cccc(-c2ccc([C@@H]3[C@@H]4CN(S(=O)(=O)c5ccc(-c6ccccc6)cc5)C[C@H]3N4)cc2)c1`, the AC40 was 3.49 µM.
Consider `COc1ccc(C2=NN(C(C)=O)C(c3cccs3)C2)cc1OC` (stereo unspecified), for which the AC40 is 8.92 µM.
Turning to `NS(=O)(=O)c1ccc(NC(=S)N2CCN(c3ccc(Cl)c(Cl)c3)CC2)cc1`, the AC40 was 9.46 µM.
Turning to `Cc1cccc(S(=O)(=O)N2CCCCN3[C@@H](CO)[C@@H](c4ccc(C#CC(C)C)cc4)[C@@H]3C2)c1`, the AC40 was 18.2 µM.
`COc1ccc(CC(N)c2csc(NC(=O)Nc3ccc(C(C)C)cc3)n2)cc1` (stereo unspecified): the AC40 was 6.81 µM.
As to `COc1ccccc1CCn1cnc(-c2ccc(F)cc2)c1CC(C)C`, the AC40 is 7.14 µM.
Regarding `CS(=O)(=O)c1cnc(-c2ccccc2)nc1Oc1ccc(F)cc1`, the AC40 was 15.1 µM.
`CCn1nc(C(=O)Nc2ccc3nc(C)sc3c2)c2ccccc2c1=O`: the AC40 was 25.1 µM.
Turning to `CCOC(=O)c1csc(-c2ccc(OC)c(OC)c2)n1`, the AC40 is 2.17 µM.
Take `N#Cc1sc2nc3c(c(-c4cccnc4)c2c1N)CCC3`: the AC40 is 26.5 µM.
For `COc1ccc(-c2nnc3sc(-c4cccs4)nn23)cc1OC` the value was 22 µM.
Turning to `COc1cc2c(cc1OC)-c1cc(N3CCc4ccccc43)nc(=O)n1CC2`, the AC40 is 15.6 µM.
For the compound `COC(=O)C1=C(C)N(Cc2ccc(C(F)(F)F)cc2)C(=NCc2ccccc2)NC1c1ccc(Cl)cc1` (stereo unspecified), the AC40 was 8.24 µM.
As for `Nc1c(C(=O)Nc2ccc3c(c2)OCCO3)nnn1Cc1ccc(Cl)cc1`, the AC40 was 12.7 µM.
Turning to `Cc1cccc(NC(=O)c2ccc(OCc3c(C)noc3C)cc2)c1C`, the AC40 is 1.54 µM.
On to `FC(F)(F)c1cc(CCN2CCNC[C@H]2Cc2cccc3ccccc23)cc(C(F)(F)F)c1`, for which the AC40 was 7.24 µM.
As for `OC(c1ccccc1)(c1ccccc1)C1CCN(CCCOc2ccc3c(c2)CCCC3)CC1`, the AC40 is 6.92 µM.
With `CCOc1cccc(-c2csc(C3COc4ccccc4O3)n2)c1` (stereo unspecified), the AC40 is 3.7 µM.
As to `CONc1nc(NC(C)(C)C)nc(OCC#N)n1`, the AC40 is > 35 µM (inactive).
Turning to `CC(C)Cn1c(=O)n(C)c(=O)c2[nH]cnc21`, the AC40 is 9.51 µM.
Turning to `COc1ccc(Cn2c(=O)c3[nH]cnc3n(-c3ccccc3C)c2=O)cc1`, the AC40 was 10.4 µM.
For `COC(=O)C1=C(C)N(Cc2cccc(C(F)(F)F)c2)C(=NCc2ccc(OC)cc2)NC1c1cccc(F)c1` (stereo unspecified), the AC40 is 10.8 µM.
Regarding `C[C@@H]1CN([C@H](C)CO)S(=O)(=O)c2ccc(-c3ccc(F)cc3)cc2O[C@H]1CN(C)Cc1cccc(F)c1`, the AC40 was 15.5 µM.
Take `COc1ccc2nc3ccccc3nc2c1NC(=O)c1ccc(Cl)cc1Cl`: the AC40 was 6.29 µM.
As for `COc1ccc(C(C)NCCC(c2ccc(OC(C)C)cc2)c2ccccc2OC)cc1` (stereo unspecified), the AC40 was 7.95 µM.
As to `O=C(NN=Cc1ccccc1Cl)c1cccc2ccccc12`, the AC40 was 11.6 µM.
With `COc1ccc(CCNC(=O)CCc2nc3ccccc3[nH]2)cc1OC`, the AC40 is 0.311 µM.
Regarding `CC(=O)Nc1sc(N/N=C\c2cccc(Cl)c2)nc1-c1cccs1`, the AC40 was 6.6 µM.
As for `COC(=O)C1=C(C)N(Cc2cccc(C(F)(F)F)c2)C(=NCc2ccccc2)NC1c1ccc(Cl)cc1` (stereo unspecified), the AC40 is 11.6 µM.
For `COc1ccc(C(=O)Nc2ccc3c(c2)C(=O)c2ccccc2C3=O)cc1OC` the value was 24.1 µM; for `O=C(Nc1ccc(Cl)c(Cl)c1)Nc1nc(-c2ccccc2)cs1`, 4.71 µM.
Turning to `O=C(Nc1ccc(C(F)(F)F)cc1)N1C[C@@H]2N[C@H](C1)C2c1ccc(-c2ccccc2)cc1` (stereo partly specified), the AC40 is 10.2 µM.
As for `CCCCc1c(-c2ccccc2OC)ncn1CCc1ccccc1`, the AC40 was 16.7 µM.
For `CC1CCN(S(=O)(=O)c2ccc(C(=O)OCc3ccc4c(c3)OCO4)cc2)CC1` the value was 13.4 µM; for `O=C(NCc1ccccn1)c1coc(=O)c(Br)c1`, 2.01 µM.
As for `COc1ccc(CCNC(=O)NS(=O)(=O)c2ccc(C)cc2)cc1OC`, the AC40 is > 35 µM (inactive).
Consider `COc1cc2cnc(-c3ccsc3)cc2cc1OC`, for which the AC40 was 0.826 µM.
With `COc1cc(CN2CCc3ccccc3C2)ccc1O`, the AC40 was 6.75 µM.
In the case of `COc1ccc(C)c2sc(N(CCCN(C)C)C(=O)c3ccc(S(=O)(=O)N4CCc5ccccc5C4)cc3)nc12` it was 3.95 µM; in that of `NC(c1csc(NC(=O)Nc2cccc(C(F)(F)F)c2)n1)C1CCCCC1` (stereo unspecified), 6.13 µM.
For `COc1cc(CN2C[C@@H]3N[C@H](C2)C3c2ccc(/C=C/c3ccccc3)cc2)cc(OC)c1` (stereo partly specified) the value was 5.5 µM; for `O=C(Cn1c(COc2ccccc2)nc2ccccc21)Nc1cc(Cl)cc(Cl)c1`, 10.9 µM.
On to `COc1ccc(/C=N/NC(=O)CCOc2ccccc2C)cc1OC`, for which the AC40 is 7.01 µM.

The record behind these values is PubChem BioAssay AID977607 (Broad Institute, 2014).
